Laboratory results as given in patent publication US11572590B2, “Methods for evaluating tumor cell spheroids using 3D microfluidic cell culture device” (Dana-Farber Cancer Institute, Inc., priority 2017, dated 2023).
Read-outs that look alike come from different tables or passages of the source.

How the values were obtained:
Experiment in all cases: SelectScreen Kinase Profiling, single point inhibition and IC50 for off-target kinases
Format in all cases: biochemical
[1] = biological target: off-target kinases (Homo sapiens, UniProt P00533, L858R); conditions: EGFR (ErbB1) L858R (mutant), ZLYTE, ATP Km app
Chain of off-target kinases (Homo sapiens, UniProt P00533, L858R) (P00533 25-1210 L858R): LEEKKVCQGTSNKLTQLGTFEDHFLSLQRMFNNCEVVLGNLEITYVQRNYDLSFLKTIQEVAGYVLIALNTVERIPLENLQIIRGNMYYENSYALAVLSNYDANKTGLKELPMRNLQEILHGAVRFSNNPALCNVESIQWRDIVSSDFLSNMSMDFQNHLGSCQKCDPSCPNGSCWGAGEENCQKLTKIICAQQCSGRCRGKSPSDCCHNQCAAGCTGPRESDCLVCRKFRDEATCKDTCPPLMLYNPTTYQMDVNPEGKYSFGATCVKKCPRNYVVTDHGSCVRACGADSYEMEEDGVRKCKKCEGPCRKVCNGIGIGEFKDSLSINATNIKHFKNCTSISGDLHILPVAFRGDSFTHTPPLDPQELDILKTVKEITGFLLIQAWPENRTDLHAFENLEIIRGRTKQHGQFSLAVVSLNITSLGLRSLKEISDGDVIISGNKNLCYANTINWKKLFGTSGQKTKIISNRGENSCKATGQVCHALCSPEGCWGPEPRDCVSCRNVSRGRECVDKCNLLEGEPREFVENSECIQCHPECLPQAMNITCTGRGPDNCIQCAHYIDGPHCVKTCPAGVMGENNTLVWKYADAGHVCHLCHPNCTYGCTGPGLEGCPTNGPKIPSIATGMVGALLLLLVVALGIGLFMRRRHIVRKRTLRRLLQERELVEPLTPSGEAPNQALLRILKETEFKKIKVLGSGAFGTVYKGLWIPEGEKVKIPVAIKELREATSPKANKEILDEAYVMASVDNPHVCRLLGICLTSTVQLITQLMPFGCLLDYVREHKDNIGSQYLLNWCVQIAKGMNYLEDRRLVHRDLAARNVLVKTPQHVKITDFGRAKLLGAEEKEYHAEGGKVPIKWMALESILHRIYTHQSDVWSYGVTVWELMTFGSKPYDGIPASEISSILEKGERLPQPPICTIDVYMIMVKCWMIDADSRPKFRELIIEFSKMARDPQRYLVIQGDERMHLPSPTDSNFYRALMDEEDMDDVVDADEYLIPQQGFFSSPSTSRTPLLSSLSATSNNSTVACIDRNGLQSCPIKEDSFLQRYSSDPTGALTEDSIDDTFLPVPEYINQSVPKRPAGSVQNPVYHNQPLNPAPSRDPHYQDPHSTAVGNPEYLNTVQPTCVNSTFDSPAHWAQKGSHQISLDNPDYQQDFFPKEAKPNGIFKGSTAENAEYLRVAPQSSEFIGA

[2] = biological target: off-target kinases (Homo sapiens, UniProt P15056); conditions: BRAF; for inhibition: LanthaScreen Binding
Chain of off-target kinases (Homo sapiens, UniProt P15056) (P15056 whole entry): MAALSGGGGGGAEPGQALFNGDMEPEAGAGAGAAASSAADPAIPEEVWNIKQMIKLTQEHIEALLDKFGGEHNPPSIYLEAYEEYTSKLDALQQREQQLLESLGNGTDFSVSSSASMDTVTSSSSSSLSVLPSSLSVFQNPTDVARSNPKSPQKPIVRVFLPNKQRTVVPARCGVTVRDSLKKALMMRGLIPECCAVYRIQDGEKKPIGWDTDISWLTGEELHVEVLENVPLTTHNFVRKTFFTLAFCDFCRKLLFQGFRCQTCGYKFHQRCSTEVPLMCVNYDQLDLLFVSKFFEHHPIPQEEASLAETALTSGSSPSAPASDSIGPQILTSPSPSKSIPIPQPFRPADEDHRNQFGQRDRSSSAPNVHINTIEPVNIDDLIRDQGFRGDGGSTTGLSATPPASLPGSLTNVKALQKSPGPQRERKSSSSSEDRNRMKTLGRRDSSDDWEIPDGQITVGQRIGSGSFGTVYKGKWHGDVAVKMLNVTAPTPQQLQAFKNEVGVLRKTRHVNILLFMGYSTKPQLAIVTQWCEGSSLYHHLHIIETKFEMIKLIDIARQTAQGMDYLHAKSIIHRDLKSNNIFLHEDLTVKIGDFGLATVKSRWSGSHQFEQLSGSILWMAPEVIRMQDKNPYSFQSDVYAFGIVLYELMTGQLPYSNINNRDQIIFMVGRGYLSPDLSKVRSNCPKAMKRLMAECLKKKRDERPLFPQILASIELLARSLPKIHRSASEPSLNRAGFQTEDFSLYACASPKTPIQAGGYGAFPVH

[3] = biological target: off-target kinases (Homo sapiens, UniProt P17948); conditions: FLT1 (VEGFR1), ZLYTE, ATP Km app
Chain of off-target kinases (Homo sapiens, UniProt P17948) (P17948 27-1338): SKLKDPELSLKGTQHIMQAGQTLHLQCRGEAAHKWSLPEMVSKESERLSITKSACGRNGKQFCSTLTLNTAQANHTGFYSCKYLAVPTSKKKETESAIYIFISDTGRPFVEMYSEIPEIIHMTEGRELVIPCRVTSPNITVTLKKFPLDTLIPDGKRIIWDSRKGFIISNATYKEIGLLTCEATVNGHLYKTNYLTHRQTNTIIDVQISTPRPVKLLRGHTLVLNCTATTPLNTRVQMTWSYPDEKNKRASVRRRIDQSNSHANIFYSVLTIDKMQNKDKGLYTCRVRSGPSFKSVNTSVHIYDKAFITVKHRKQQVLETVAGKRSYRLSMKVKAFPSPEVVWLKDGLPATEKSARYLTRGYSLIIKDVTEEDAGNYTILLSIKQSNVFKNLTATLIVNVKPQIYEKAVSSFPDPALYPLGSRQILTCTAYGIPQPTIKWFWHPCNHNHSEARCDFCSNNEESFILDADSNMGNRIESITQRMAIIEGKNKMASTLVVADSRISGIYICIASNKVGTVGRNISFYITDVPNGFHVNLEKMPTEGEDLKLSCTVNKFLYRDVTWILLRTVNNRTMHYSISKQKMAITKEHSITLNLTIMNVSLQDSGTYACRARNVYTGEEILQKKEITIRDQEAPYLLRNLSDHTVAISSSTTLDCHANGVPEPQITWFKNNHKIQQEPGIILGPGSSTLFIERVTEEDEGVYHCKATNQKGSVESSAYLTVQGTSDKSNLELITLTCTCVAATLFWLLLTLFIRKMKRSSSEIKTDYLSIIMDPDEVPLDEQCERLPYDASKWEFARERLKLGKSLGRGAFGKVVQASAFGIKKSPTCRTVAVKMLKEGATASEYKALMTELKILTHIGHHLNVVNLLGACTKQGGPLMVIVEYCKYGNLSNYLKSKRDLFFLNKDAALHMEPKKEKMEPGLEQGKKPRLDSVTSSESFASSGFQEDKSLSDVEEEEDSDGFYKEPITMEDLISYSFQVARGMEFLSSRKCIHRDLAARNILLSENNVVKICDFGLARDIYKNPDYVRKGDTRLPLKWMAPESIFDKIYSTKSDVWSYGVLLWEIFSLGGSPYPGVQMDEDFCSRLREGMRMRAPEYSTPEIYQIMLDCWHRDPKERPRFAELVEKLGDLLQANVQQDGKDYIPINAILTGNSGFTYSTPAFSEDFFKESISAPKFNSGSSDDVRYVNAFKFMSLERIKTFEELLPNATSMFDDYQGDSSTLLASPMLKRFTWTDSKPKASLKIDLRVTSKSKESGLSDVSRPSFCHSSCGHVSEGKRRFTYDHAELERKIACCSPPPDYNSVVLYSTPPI

[4] = biological target: T1, off-target kinases (Homo sapiens, UniProt P51955); conditions: NEK2, ZLYTE, ATP Km app
T1 sequence (P51955 1-445): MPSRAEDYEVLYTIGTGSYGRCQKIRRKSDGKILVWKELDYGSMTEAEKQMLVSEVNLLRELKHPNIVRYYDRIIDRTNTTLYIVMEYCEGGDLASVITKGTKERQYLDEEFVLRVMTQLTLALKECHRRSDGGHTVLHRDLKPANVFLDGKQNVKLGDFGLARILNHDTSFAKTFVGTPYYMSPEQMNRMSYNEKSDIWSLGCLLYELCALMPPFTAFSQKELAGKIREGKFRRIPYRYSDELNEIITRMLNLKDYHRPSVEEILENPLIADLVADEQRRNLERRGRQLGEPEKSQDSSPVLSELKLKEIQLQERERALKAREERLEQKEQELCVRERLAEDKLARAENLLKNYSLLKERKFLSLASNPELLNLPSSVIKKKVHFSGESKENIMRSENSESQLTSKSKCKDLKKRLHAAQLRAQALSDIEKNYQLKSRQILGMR

[5] = biological target: off-target kinases (Homo sapiens, UniProt Q7KZI7); conditions: MARK2, ATP Km app, ZLYTE
Chain of off-target kinases (Homo sapiens, UniProt Q7KZI7) (Q7KZI7 whole entry): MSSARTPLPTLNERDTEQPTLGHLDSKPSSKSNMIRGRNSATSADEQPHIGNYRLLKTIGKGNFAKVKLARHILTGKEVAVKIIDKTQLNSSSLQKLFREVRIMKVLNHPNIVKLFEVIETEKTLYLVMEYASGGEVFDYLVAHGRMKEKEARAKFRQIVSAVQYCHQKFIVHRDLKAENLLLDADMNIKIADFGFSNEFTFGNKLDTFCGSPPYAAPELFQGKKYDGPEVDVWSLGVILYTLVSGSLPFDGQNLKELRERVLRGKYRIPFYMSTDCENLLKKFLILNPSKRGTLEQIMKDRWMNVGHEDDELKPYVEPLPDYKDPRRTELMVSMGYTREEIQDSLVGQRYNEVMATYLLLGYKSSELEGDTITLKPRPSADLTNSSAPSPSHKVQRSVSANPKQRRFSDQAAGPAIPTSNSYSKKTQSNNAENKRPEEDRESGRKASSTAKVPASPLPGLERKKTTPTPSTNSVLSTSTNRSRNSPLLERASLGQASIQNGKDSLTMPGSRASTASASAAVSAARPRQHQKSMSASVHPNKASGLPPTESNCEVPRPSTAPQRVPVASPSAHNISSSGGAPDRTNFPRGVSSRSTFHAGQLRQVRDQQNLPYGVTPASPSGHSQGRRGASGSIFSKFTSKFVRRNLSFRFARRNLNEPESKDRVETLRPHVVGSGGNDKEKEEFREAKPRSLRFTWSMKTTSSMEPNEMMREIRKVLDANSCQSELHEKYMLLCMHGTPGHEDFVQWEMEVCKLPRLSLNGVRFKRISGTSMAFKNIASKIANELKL

[6] = biological target: T2, off-target kinases (Homo sapiens, UniProt Q8IWQ3); conditions: BRSK2, LanthaScreen Binding
T2 sequence (Q8IWQ3 1-736): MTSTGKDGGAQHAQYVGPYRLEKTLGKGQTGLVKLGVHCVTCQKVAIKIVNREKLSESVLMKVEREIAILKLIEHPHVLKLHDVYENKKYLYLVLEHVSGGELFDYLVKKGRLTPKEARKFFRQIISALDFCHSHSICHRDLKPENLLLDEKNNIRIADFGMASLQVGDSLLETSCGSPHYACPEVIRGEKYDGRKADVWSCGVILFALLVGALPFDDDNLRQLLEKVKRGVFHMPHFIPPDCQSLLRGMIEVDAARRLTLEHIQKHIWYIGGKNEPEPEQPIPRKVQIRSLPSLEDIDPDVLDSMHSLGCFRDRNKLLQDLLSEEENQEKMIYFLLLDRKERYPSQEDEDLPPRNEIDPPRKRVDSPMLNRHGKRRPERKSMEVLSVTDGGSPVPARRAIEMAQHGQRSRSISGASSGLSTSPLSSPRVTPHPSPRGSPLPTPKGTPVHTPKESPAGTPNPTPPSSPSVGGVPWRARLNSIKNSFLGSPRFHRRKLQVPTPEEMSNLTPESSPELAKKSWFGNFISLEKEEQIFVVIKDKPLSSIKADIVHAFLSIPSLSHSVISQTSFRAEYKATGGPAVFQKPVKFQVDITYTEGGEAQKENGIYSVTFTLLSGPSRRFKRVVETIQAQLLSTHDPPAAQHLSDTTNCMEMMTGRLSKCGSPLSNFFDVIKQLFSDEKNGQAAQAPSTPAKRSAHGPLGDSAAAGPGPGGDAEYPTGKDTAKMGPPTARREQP

[7] = biological target: off-target kinases (Homo sapiens, UniProt Q96S53); conditions: TESK2, LanthaScreen Binding
Chain of off-target kinases (Homo sapiens, UniProt Q96S53) (Q96S53 whole entry): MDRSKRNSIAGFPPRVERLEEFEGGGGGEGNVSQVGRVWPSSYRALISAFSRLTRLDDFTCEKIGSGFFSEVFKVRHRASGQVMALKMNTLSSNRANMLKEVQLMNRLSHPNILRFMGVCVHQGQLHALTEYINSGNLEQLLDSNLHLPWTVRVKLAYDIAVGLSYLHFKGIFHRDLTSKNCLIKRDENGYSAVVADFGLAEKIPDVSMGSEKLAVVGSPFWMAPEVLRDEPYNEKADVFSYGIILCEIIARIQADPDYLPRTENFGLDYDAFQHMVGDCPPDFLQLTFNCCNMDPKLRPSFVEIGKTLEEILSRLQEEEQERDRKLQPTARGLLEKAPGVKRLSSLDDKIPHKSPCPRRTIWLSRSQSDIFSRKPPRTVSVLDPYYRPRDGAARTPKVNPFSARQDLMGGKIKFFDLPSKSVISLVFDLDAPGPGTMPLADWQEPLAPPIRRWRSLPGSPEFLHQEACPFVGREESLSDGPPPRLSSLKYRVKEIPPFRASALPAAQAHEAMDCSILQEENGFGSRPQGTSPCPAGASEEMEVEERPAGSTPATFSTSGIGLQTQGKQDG

Structure (SMILES): N#Cc1cc(-c2ncnc(Nc3ccc(N4CCN(C5COC5)CC4)cc3)n2)ccc1OC1CCOCC1 [Compound 1, 5-(4-((4-(4-(oxetan-3-yl)piperazin-1-yl)phenyl)amino)-1,3,5-triazin-2-yl)-2-((tetrahydro-2H-pyran-4-yl)oxy)benzonitrile]
- inhibition ([1]; read-out: % Inhibition 1): 6%
- inhibition ([1]; read-out: % Inhibition 2): 3%
- inhibition ([1]; read-out: % Inhibition Avg): 4%
- % Inhibition 1 ([2]; Cmpd1 1000 μM, ATP 100, ZLYTE): −18%
- % Inhibition 2 ([2]; Cmpd1 1000 μM, ATP 100, ZLYTE): −10%
- % Inhibition Avg ([2]; Cmpd1 1000 μM, ATP 100, ZLYTE): −14%
- inhibition ([2]; read-out: % Inhibition 1): 44%
- inhibition ([2]; read-out: % Inhibition 2): 47%
- inhibition ([2]; read-out: % Inhibition Avg): 46%
- inhibition ([3]; read-out: % Inhibition 1): 7%
- inhibition ([3]; read-out: % Inhibition 2): 4%
- inhibition ([3]; read-out: % Inhibition Avg): 6%
- inhibition ([4]; read-out: % Inhibition 1): 29%
- inhibition ([4]; read-out: % Inhibition 2): 30%
- inhibition ([4]; read-out: % Inhibition Avg): 30%
- inhibition ([5]; read-out: % Inhibition 1): 86%
- inhibition ([5]; read-out: % Inhibition 2): 82%
- inhibition ([5]; read-out: % Inhibition Avg): 84%
- inhibition ([6]; read-out: % Inhibition 1): 16%
- inhibition ([6]; read-out: % Inhibition 2): 17%
- inhibition ([6]; read-out: % Inhibition Avg): 17%
- inhibition ([7]; read-out: % Inhibition 1): 14%
- inhibition ([7]; read-out: % Inhibition 2): -3%
- inhibition ([7]; read-out: % Inhibition Avg): 6%
